# According to patent publication US11034685B2, “Aminopyridine derivatives as TAM family kinase inhibitors” (SignalChem Lifesciences Corporation, priority 2013, dated 2021):
# What was measured:
# Format in all cases: biochemical
# [1] = target: T1, Recombinant human Tyro3 (455-end) (Homo sapiens, UniProt Q06418); assay: Kinase enzymatic activity assay ([33P]-ATP phosphate transfer), Tyro3; conditions: inhibitory activity on Tyro3; class symbols
# T1 construct: GST (N); made in house; host or cells: Sf9 insect cells (baculovirus)
# T1 sequence (Q06418 455-890 limits assumed): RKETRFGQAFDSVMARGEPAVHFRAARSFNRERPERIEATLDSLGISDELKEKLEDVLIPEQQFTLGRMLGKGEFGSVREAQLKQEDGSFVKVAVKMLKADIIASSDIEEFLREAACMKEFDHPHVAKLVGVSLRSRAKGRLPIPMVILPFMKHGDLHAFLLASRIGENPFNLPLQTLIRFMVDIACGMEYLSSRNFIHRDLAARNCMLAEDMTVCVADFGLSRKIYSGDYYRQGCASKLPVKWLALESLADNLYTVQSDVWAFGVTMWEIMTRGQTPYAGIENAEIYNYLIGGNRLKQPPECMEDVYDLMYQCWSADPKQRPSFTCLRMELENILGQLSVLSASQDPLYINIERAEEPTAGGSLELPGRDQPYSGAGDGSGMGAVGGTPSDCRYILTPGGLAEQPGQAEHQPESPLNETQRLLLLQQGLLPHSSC
# Outline: (§1)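 Kinases were N-terminal GST-tagged constructs expressed in Sf9 cells, with poly(Glu:Tyr 4:1) as substrate. Reactions ran in MOPS buffer pH 7.2 with MgCl2 and [33P]-ATP (250 μM cocktail stock) for 30 min at room temperature. Filter-bound radioactivity gave % inhibition, and IC50 was taken from serial dilutions.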
# human Axl (473-end) = target: T2, human Axl (473-end) (Homo sapiens, UniProt P30530); assay: Kinase enzymatic activity assay ([33P]-ATP phosphate transfer), Axl; conditions: inhibitory activity on Axl; class symbols
# T2 construct: GST (N); made in house; host or cells: Sf9 insect cells (baculovirus)
# T2 sequence (P30530 473-894 limits assumed): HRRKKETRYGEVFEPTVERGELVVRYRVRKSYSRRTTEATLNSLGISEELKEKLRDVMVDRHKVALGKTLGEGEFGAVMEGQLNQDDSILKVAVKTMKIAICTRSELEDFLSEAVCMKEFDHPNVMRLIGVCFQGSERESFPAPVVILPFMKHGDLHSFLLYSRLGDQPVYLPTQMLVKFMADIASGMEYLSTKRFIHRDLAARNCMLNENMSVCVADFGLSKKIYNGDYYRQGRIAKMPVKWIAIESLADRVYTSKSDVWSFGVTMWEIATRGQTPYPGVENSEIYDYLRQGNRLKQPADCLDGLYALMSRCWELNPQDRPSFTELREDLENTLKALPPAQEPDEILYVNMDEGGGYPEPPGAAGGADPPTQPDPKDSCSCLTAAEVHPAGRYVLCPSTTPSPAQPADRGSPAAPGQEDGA
# Outline: as §1
# human Mer (578-872) = target: T3, human Mer (578-872) (Homo sapiens, UniProt Q12866); assay: Kinase enzymatic activity assay ([33P]-ATP phosphate transfer), Mer; conditions: inhibitory activity on Mer; class symbols
# T3 construct: GST (N); made in house; host or cells: Sf9 insect cells (baculovirus)
# T3 sequence (Q12866 578-872): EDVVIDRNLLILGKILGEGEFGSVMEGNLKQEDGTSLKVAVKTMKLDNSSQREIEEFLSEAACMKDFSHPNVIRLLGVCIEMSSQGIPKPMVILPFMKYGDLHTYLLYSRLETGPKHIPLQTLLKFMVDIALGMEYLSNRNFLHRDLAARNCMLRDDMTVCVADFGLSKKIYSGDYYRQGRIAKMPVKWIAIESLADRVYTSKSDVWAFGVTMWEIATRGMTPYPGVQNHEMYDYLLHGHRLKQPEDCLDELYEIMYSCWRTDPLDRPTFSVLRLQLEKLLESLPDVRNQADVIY
# Outline: as §1
SMILES,IC50 [1] [µM],IC50 (human Axl (473-end)) [µM],IC50 (human Mer (578-872)) [µM]
"Nc1ncc(-c2cnn(C3CCOCC3)c2)cc1-c1noc(-c2ccccc2)n1 [3-(5-phenyl-1,2,4-oxadiazol-3-yl)-5-(1-(tetrahydro-2H-pyran-4-yl)-1H-pyrazol-4-yl)pyridin-2-amine]",0.5 to 1,< 0.5,1 to 10
"CC(C)(C)OC(=O)N1CCC(n2cc(-c3cnc(N)c(-c4nnc(-c5ccc(F)cc5)o4)c3)cn2)CC1 [tert-butyl 4-(4-(6-amino-5-(5-(4-fluorophenyl)-1,3,4-oxadiazol-2-yl)pyridin-3-yl)-1H-pyrazol-1-yl)piperidine-1-carboxylate]",1 to 10,1 to 10,1 to 10
Nc1ncc(-c2cnn(C3CCN(C(=O)c4ccc(F)cc4)CC3)c2)cc1-c1ncc(-c2cccc(Cl)c2)o1 [(4-(4-(6-amino-5-(5-(3-chlorophenyl)oxazol-2-yl)pyridin-3-yl)-1H-pyrazol-1-yl)piperidin-1-yl)(4-fluorophenyl)methanone],< 0.5,< 0.5,1 to 10
Nc1ncc(-c2cnn(C3CCN(C(=O)c4ccccc4)CC3)c2)cc1-c1ncc(-c2cccc(Cl)c2)o1,< 0.5,< 0.5,1 to 10
Nc1ncc(-c2cnn(C3CCCCC3)c2)cc1-c1ncc(-c2cccc(Cl)c2)o1 [3-(5-(3-chlorophenyl)oxazol-2-yl)-5-(1-cyclohexyl-1H-pyrazol-4-yl)pyridin-2-amine],1 to 10,1 to 10,1 to 10
Nc1ncc(-c2cnn(C3CCNCC3)c2)cc1-c1ncc(-c2ccc(Cl)cc2)o1 [3-(5-(4-chlorophenyl)oxazol-2-yl)-5-(1-(piperidin-4-yl)-1H-pyrazol-4-yl)pyridin-2-amine],< 0.5,< 0.5,< 0.5
"Nc1ncc(-c2cnn(C3CCOCC3)c2)cc1-c1nnc(-c2c(Cl)cccc2Cl)o1 [3-(5-(2,6-dichlorophenyl)-1,3,4-oxadiazol-2-yl)-5-(1-(tetrahydro-2H-pyran-4-yl)-1H-pyrazol-4-yl)pyridin-2-amine]",< 0.5,< 0.5,< 0.5
CC(C)(C)OC(=O)N1CCC(n2cc(-c3cnc(N)c(-c4nnc(-c5ccc(C(C)(C)C)cc5)o4)c3)cn2)CC1,1 to 10,0.5 to 1,< 0.5
CC(C)(C)OC(=O)N1CCC(n2cc(-c3cnc(N)c(-c4ncc(-c5ccccc5)o4)c3)cn2)CC1 [tert-butyl 4-(4-(6-amino-5-(5-phenyloxazol-2-yl)pyridin-3-yl)-1H-pyrazol-1-yl)piperidine-1-carboxylate],0.5 to 1,< 0.5,1 to 10
"Nc1ncc(-c2cnn(C3CCN(C(=O)Cc4ccccc4)CC3)c2)cc1-c1nc(-c2ccccc2)no1 [1-(4-(4-(6-amino-5-(3-phenyl-1,2,4-oxadiazol-5-yl)pyridin-3-yl)-1H-pyrazol-1-yl)piperidin-1-yl)-2-phenylethanone]",1 to 10,0.5 to 1,1 to 10
"Nc1ncc(-c2cn[nH]c2)cc1-c1nnc(-c2ccccc2)o1 [3-(5-phenyl-1,3,4-oxadiazol-2-yl)-5-(1H-pyrazol-4-yl)pyridin-2-amine]",< 0.5,< 0.5,0.5 to 1
"CC(C)(C)OC(=O)N1CCC(n2cc(-c3cnc(N)c(-c4nnc(-c5cnccn5)o4)c3)cn2)CC1 [tert-butyl 4-(4-(6-amino-5-(5-(pyrazin-2-yl)-1,3,4-oxadiazol-2-yl)pyridin-3-yl)-1H-pyrazol-1-yl)piperidine-1-carboxylate]",1 to 10,< 0.5,1 to 10
"Nc1ncc(-c2cn[nH]c2)cc1-c1nc(-c2ccccc2)no1 [3-(3-phenyl-1,2,4-oxadiazol-5-yl)-5-(1H-pyrazol-4-yl)pyridin-2-amine]",1 to 10,0.5 to 1,1 to 10
"Nc1ncc(-c2cn[nH]c2)cc1-c1nnc(-c2c(Cl)cccc2Cl)o1 [3-(5-(2,6-dichlorophenyl)-1,3,4-oxadiazol-2-yl)-5-(1H-pyrazol-4-yl)pyridin-2-amine]",< 0.5,< 0.5,< 0.5
"CCN1CCC(n2cc(-c3cnc(N)c(-c4nc(-c5ccccc5)no4)c3)cn2)CC1 [5-(1-(1-ethylpiperidin-4-yl)-1H-pyrazol-4-yl)-3-(3-phenyl-1,2,4-oxadiazol-5-yl)pyridin-2-amine]",< 0.5,< 0.5,< 0.5
"Nc1ncc(-c2cnn(C3CCNCC3)c2)cc1-c1nnc(-c2cccnc2)o1 [5-(1-(piperidin-4-yl)-1H-pyrazol-4-yl)-3-(5-(pyridin-3-yl)-1,3,4-oxadiazol-2-yl)pyridin-2-amine]",< 0.5,< 0.5,< 0.5
CC(=O)N1CCC(n2cc(-c3cnc(N)c(-c4ncc(-c5ccc(Cl)cc5)o4)c3)cn2)CC1 [1-(4-(4-(6-amino-5-(5-(4-chlorophenyl)oxazol-2-yl)pyridin-3-yl)-1H-pyrazol-1-yl)piperidin-1-yl)ethanone],> 10,> 10,> 10
"Nc1ncc(-c2cnn(C3CCOCC3)c2)cc1-c1nc(-c2c(Cl)cccc2Cl)no1 [3-(3-(2,6-dichlorophenyl)-1,2,4-oxadiazol-5-yl)-5-(1-(tetrahydro-2H-pyran-4-yl)-1H-pyrazol-4-yl)pyridin-2-amine]",< 0.5,1 to 10,1 to 10
Nc1ncc(-c2cnn(C3CCOCC3)c2)cc1-c1ncc(-c2ccccc2)o1 [3-(5-phenyloxazol-2-yl)-5-(1-(tetrahydro-2H-pyran-4-yl)-1H-pyrazol-4-yl)pyridin-2-amine],< 0.5,< 0.5,> 10
